# Measured values: patent publication US7803844B2, “Composition for preventing and/or treating bone disease, physiologically functional or health food containing thereof, and pharmaceutical containing thereof as active ingredients” (Erina Co. Inc., priority 2004, dated 2010)
# pIC50: −log10 of the molar value.
# Columns and labels:
# [1] = system: MφRAW264 cells; assay: Inhibition assay I of the early phase differentiation of osteoclast (TRAP activity); format: cell-based
# Source text: Macrophage RAW264 cell line (RIKEN. cell No. CB0535, herein below, referred to as “MφRAW264”), which may differentiate to osteoclast-like cells, was used in the inhibition assay of the early phase differentiation of osteoclast. α-MEM (Invitrogen Co., Cat. No. 11900-024) including 10% of fetal bovine serum (Asahi Technoglass Co., (IWAKI), Cat. No. IWK-500) was used for cultivating MφRAW264. Osteoclast differentiation factor (ODF/RANKL) was purchased from Pepro Tech Inc., Cat. No. 310-01. Inhibition assay I of the early phase differentiation of osteoclast was performed for evaluating the inhibition level of the bone resorption in vitro, the differentiation assay of osteoclast from MφRAW264 cells in early stage. Results of the osteoclast assay were evaluated by determining tartrate resistant acid phosphatase (TRAP) activity, an early stage differentiation marker, and TRAP staining. By using these two indices, activities of flavones from MφRAW264 cells to osteoclast are quantitatively evaluated. MφRAW264 cells were suspended in a α-MEM supplemented 10% of fetal bovine serum (FBS), which is referred to as “10% FBS-MEM herein below”, and plated at 1×10^5 cells/10 mL in 100 mm φ dishes. Then, the dishes were incubated under the presence of 5% of CO2, at 37° C. for 3 days. After confirmed that the plated cells in the dishes became confluent, the incubation was finished. Subsequently, when the cells became confluent, they were treated by using 0.05% of trypsin and Hank's balanced salt solution containing 0.53 mM of EDTA (0.05% Trypsin-0.53 mM EDTA/HBSS (Invitrogen Co., Cat. No. 25300-054) to scrape them, and then suspended in 10% FBS-MEM to plate 0.4×10^4 cells/0.1 mL per each well of 96-well microplates. Then, the plates were incubated one day under the same condition as described above. Osteoclast differentiation factor (ODF/RANKL) was dissolved in 10% FBS-MEM to prepare 100 ng/mL of solution. Alternatively, a stock solution of honokiol was prepared at the concentration of 10 mM in methanol, and stored at −20° C. […] Equal volume of methanol was solely added into the control wells. Honokiol used in the following experiments were the solutions having each concentration prepared as described above. […] Equal volume of methanol without honokiol was added into the control wells. […] Incubation medium in each well of the 96-well microplate was discarded. […] After drying, tartrate resistant acid phosphatase activity was determined (hereinafter, it is referred to as “TRAP assay”), and staining of cells in the well was performed. […] Thirty minutes later, the reaction was terminated by adding 0.1 mL of 0.1 M NaOH, and released p-nitrophenol was determined by the spectrophotometer (Dainippon Pharmaceutical Co. Ltd.) at wave length 405 nm. […]
# [2] = system: MφRAW264 cells; assay: Proliferated cell number counting assay (XTT cell viability); details: XTT, 3 days
# Procedure: As a non-RI method for determining cell proliferation and cell viability, color reaction by using XTT was employed. MφRAW264 cells were suspended in 10% FBS-MEM, and plated into the 96-well microplate at 0.4×10^4 cells/0.1 mL; then incubated for 1 day. Subsequently, 10% FBS-MEM solution of osteoclast differentiation factor (ODF/RANKL), 100 ng/mL, was added into 0.1 mL per well at final concentration of RANKL, 50 ng/mL. At the same time, honokiol solution at respective concentration was added into the wells. For the control wells, equal volume of methanol not including honokiol was added.
# After 3 days incubation, the proliferated cells were counted by using commercially available Cell Proliferation Kit II (Roche Diagnostics Inc., Cat. No. 1 465 015) to obtain the cell viability. The procedure was carried out according to the instruction manual attached, and brief summaries were as follows.
# XTT labeling reagent and electron coupling reagent included in the kit were mixed at the ratio of 50:1, and 50 μL of mixture was added per 0.1 mL of medium in each well; then reacted for 4 hours at 37° C. After the termination of the reaction, absorbance at 492 nm of the wave length was measured by using ELISA plate reader (Dainippon Pharma Co.), wherein the reference wave length was 690 nm.
# In the above-mentioned (2-2), the same cell proliferation counting assay II was performed instead of honokiol to magnolol and their concentration used was at the range from 20 to 60 μM.
# [3] = system: M-CSF dependent cells derived from mice bone marrow cells (BMM); assay: Inhibition assay II of the early stage differentiation of osteoclast (TRAP activity); format: cell-based, mouse
# Procedure: Mouse bone marrow cells were obtained from femurs and shanks of male ddy mice from 6 to 9 week age (Chubu Kagaku Shizai Co. Ltd.)
# From 6 to 9 week ages of ddy mice, the femurs and shanks were excised. The bone row cells were extruded from these bones by using a syringe with 22 G×1 and ¼ gauge needle to obtain.
# Obtained bone marrow cells were suspended in 10% FBS-MEM supplemented with 100 μg/mL of sodium streptomycin, 100 U/mL of sodium penicillin G, 50 ng/mL of M-CSF, and 1 ng/mL of TGF-β, and then inoculated to each well of the 96-well microplate at the cell concentration of 1×10^6 cells/0.1 mL/well. Then, the plates were incubated under the presence of 5% CO2, at 37° C.
# After 3 days incubation, the culture medium was exchanged to that including 50 ng/mL of M-CSF and 50 ng/mL of osteoclast differentiation factor (DF/RANKL), simultaneously honokiol prepared as the same concentration as used in the example 1 was added. The medium of the control group was exchanged that including M-CSF and ODF/RANKL, but no honokiol. The plates were further incubated under the condition of the presence of 5% CO2, at 37° C.
# After 1.5 days from the medium exchange, tartrate resistant acid phosphatase activity, the early stage differentiation marker, was measured. Medium in each well was discarded and washed plate with PBS, the cells in the well was fixed for 15 minutes by using 10% HCHO/PBS. Furthermore, the cells were fixed by using ethanol-acetone (1:1) mixture. After fixation, the fixed mixture was discarded and dried at room temperature. After drying, tartrate resistant acid phosphatase (TRAP) of the cells in each well was measured and stained similarly to those in the example 1.
# The inhibition assay of the early stage differentiation of osteoclast was carried out similarly to the described above, except honokiol used in the above mentioned (3-2) was substituted to magnolol, and its concentration was from 20 to 60 μM.
# [4] = system: M-CSF dependent cells derived from mice bone marrow cells (BMM); assay: Cell proliferation counting assay (XTT) in bone marrow derived cells; details: mouse bone marrow M-CSF dependent cells
# Procedure: Alternatively, the cell proliferation counting assay was performed as the same as that in the example 1, the cell viability was obtained. In FIG. 2A, the cell viability was shown as white columns.
# [5] = system: acid phosphatase; details: cited from earlier work
smiles,measurement,setting,value
C=CCc1ccc(O)c(-c2cc(CC=C)ccc2O)c1 [magnolol],TRAP activity (control %),"[1]; MφRAW264 cells stimulated by 50 ng/mL ODF/RANKL, 3 days, honokiol 3-30 μM, magnolol 20-60 μM",dose-dependently inhibited
same,pIC50,"[1]; Osteoclast, 72 h, read-out: IC50, inhibition of MφRAW264 cells to osteoclast by RANKL",4.52
same,cell viability (ratio against control wells = 100),"[2]; MφRAW264 cells, honokiol 3-30 μM, magnolol 20-60 μM",seldom decreased
same,non-specific cytotoxicity to MφRAW264 cells,[2],does not show non-specific cytotoxicity
same,pIC50,"[3]; Mus musculus, Bone marrow cell, read-out: IC50, inhibition of differentiation from M-CSF dependent bone marrow cells to osteoclast induced by RANKL",4.52
same,TRAP activity (control %),"[3]; mouse bone marrow M-CSF dependent cells, 50 ng/mL RANKL, 1.5 days, honokiol 3-30 μM, magnolol 20-60 μM",dose-dependently inhibited
same,non-specific cytotoxicity (XTT assay),[4],did not show the non-specific cytotoxicity
same,inhibition activity of acid phosphatase,[5],has the inhibition activity of the acid phosphatase
